This is an account of results in USRE39192E1, “Supplemented and unsupplemented tissue sealants, methods of their production and use” (American National Red Cross, priority 1990, dated 2006).

The test system of data set [1] is human dermal fibroblasts (HDFs). The data set is described as follows: Cell chemotaxis assay (modified Boyden's chamber), human dermal fibroblasts. The format is cell-based. The source says: (§1) NIH/3T3 fibroblasts at passage 126 were purchased from the American Type Culture Collection, Rockville, Md. Cultures from passages 129-133 were used in the chemotaxis assays. Cultures were propagated in DMEM supplemented with 10%. Calf serum and approximately 1% antibiotic antimycotic solution. Human dermal fibroblasts (HDFs) were purchased from Clonetics, Inc. (San Diego, Calif.) at passage 2. Cultures from passages 3-5 were used in the chemotaxis assays. Cultures were cultivated in DMEM supplemented with 20% FBS (Hyclone Laboratories, Inc., Logan, Utah) and approximately 1% antibiotic antimycotic solution (Gibco, Grand Island, N.Y.).
(§2) The procedure used to determine cellular chemotaxis was a combination of two known methodologies. A modification of Boyden's chamber was used as follows: Millicell-PCF (Millipore, Inc., Bedford, Mass.) (12.0 μm) 12.0 mm diameter inserts were placed in individual wells of 24 well plates to create the upper and lower chemotaxis chambers. Chemotaxis results were arrived at by performing checkerboard analysis for every combination of cells and growth factors. Concentrations ranging from 0.1, 1, 10, 100 ng/ml with/without added heparin (10 U/ml) were used for FGF-1, FGF-2 (no heparin) and FGF-4 with all the cell types mentioned in the materials section. Briefly, cultures were trypsanized and placed in DMEM+0.1% Bovine Serum Albumin (BSA) (Sigma Chemical Co., St. Louis, Mo.) for approximately one hour at 37° C. in a 5% CO2 humidified chamber. Tow to 2.5×10^5 cells in 50 μl were added per insert to the upper chamber of the setup of the 24 well plates. Treatments were added as mentioned above. The assay was kept at 37° C. in a 5% CO2 humidified chamber for 4 hours. All combinations tested were performed in triplicate. At the end of 4 hours, the plates were removed from the incubator and the filters were stained following the protocol for staining included with the Millicell-PCT inserts. Briefly, the fluid surrounding the inside and outside of the Millicell-PCF inserts were removed. Three percent glutaraldehyde (Sigma Chemical Co., St. Louis, Mo.) was added to the outside and inside of the inserts for approximately 20 minutes. Following removal of the 3.0% glutaraldehyde, 0.5% Triton X-100 (E.M. Science, Cherry Hill, N.J.) was added for 5-7 minutes. On removal of the 0.5% Triton X-100, Fisher's Hematoxylin Solution Gill's Formulation (Fisher Scientific, Newark, Del.) No.1 was added for about 10 minutes. This solution was washed off in running distilled water for about 5 minutes. Using a cotton swab the upper side of the filter was swabbed to remove cells which had not migrated. Filters, were mounted lower side facing up on slides in Crystal Mount™ (Biomedia, Inc., Foster City, Calif.) solution and 10 random field were counted per slide both visually at 400× and at 200×using an Image Analyzing System to automate the enumeration of the cells on the underside of the filters.
(§3) As required, checkerboard analysis was carried out to determine random migration, and positive and negative chemotaxis. Growth factors were added to the upper and/or lower chambers to observe whether cells migrated towards the GF alone (chemotaxis), whether migration was random irrespective of whether the growth factor was added to the upper or lower well (chemokinesis) or whether cell migration was against the chemotactic gradient (negative chemotaxis).

Data set [2] deals with human umbilical endothelial cells. The data set is described as follows: Human umbilical endothelial cells embedded in FG. The format is cell-based. To be noted: within 24 hours, maintained at least 5 days. The procedure:
To study their growth, human umbilical endothelial cells, 10^5 or more cells per ml, were embedded in FG, the protein concentration of which was 4 mg/ml. The concentration of thrombin in the FG was adjusted to 0.6 NIH U/ml. The culture medium used in all of the experiments was M199 (Sigma Chemical Co., St. Louis, Mo.) supplemented with 10% fetal bovine serum, 10 μg/ml streptomycin, 100 U/ml penicillin, 1 ng/ml FGF-1 and 10 U/ml heparin.
As a control, an identical cell suspension was cultured on a surface coated with fibronectin at 10 μg/cm^2. […] FIGS. 9 and 10 show this situation at 24 and 48 hours, respectively.

In data set [3] the test system is NIH 3T3 fibroblasts. The data set is described as follows: Cell chemotaxis assay (modified Boyden's chamber), NIH 3T3 fibroblasts. The format is cell-based.
Excerpt: as §1
as §2, with “Concentrations ranging from 0.1, 1, 10, 100 ng/ml with/without added heparin (10 U/ml) were used for FGF-1, FGF-2 (no heparin) and FGF-4 with all the cell types mentioned in the materials section.” left out
as §3

Data set [4] concerns human ovarian carcinoma cell (OVACAR). The data set is described as follows: Growth inhibition of OVCAR cells by eluates of taxol-supplemented fibrin sealant (MTT assay). The format is cell-based. To be noted: taxol in solid anhydrous form. On the technique in general: Tetrazolium assays rely on reduction of a dye to a coloured formazan, in cell work by metabolically active cells.
Protocol: The kinetics of taxol delivery from fibrin sealant were initially evaluated, by incorporating taxol (0.26 mg), either as an anhydrous solid or dissolved in ethanol, into 400 μl fibrin sealant composition. The resulting supplemented fibrin matrices were then placed in 2 ml histidine buffer, and incubated at 37° C. The buffer was exchanged after two days, and again ten days later. The relative concentration of taxol in the resulting eluates determined by measuring their ability to inhibit the growth of a human ovarian carcinoma cell (OVACAR) in vitro (MacPhee et al., In Current Trends in Surgical Tissue Adhesives: Proceedings of the First International Symposium on Surgical Adhesives, R. Saltz and D. Sierra, eds. Springer-Verlag).
Briefly, 1000 OVCAR cells in 100 μl of growth medium were plated into each well of a 96 well culture plate and incubated for 24 hours. A 100 μl volume of various dilutions of the eluates was then placed into the wells (10 wells per dilution), and the plate incubated at 37° C. After five days, the number of cells in each well was measured using the MTT assay (Rapaport et al., American Journal of Clinical Pathology 97:84 (1992)). […] The resulting chromaphore is detected by spectrophotometry at 570 nm. […]

A short description of data set [5]: Release of 5-FU from FG clots. The settings on record: clots containing 50 mg of solid anhydrous 5-FU.
A short description of data set [6]: Saturation concentration of 5-FU in water. The format is physicochemical.
The nature of data set [7]: Compatibility of TGF-β2 in Topical Fibrinogen Complex (ELISA, bio-assay). To be noted: after two weeks in TFC at 2-8° C. The procedure:
Fibrinogen and thrombin were prepared per instruction of the American Red Cross, Rockville, Md. Upon reconstitution, the protein concentration of the Topical Fibrinogen Complex, (TFC) was 120 mg/ml (the standard formulation for hemostasis). The human thrombin was reconstituted with 40 mM CaCl2 to yield a solution at 300 units/ml.
To evaluate the compatibility of transforming growth factor β2 (TGF-β2) in Topical Fibrinogen Complex, TFG-β2 (purified recombinant human protein provided by Genzyme Corp., Framingham, Mass.) was spiked into TFC at 10 and 1 μg/ml. Samples were incubated for two weeks at 2-8° C. TGF-β2 was extracted for analysis by passing the gel-like material through a narrow bore stopcock connected to two syringes.
(ELISA stands for enzyme-linked immunosorbent assay.)

As for fibronectin [reference compound], the “concentration of maximal chemotactic response” value in data set [1] and in data set [3] was 20 µg/mL each time. In addition, the cell morphology result in data set [2] is reported as “acquired a cobblestone shape”. Moreover, the “migrated cells (checkerboard analysis)” value in data set [3] (lower 0 μg/ml, upper 20 μg/ml) was 69.6 +/− 12.25; in data set [3] (lower 0 μg/ml, upper 50 μg/ml), 62.0 +/− 2.616; in data set [3] (lower 10 μg/ml, upper 0 μg/ml), 68.03 +/− 10.793; in data set [3] (lower 10 μg/ml, upper 10 μg/ml), 47.53 +/− 5.605; in data set [3] (lower 10 μg/ml, upper 20 μg/ml) it was 64.86 +/− 7.961; in data set [3] (lower 10 μg/ml, upper 50 μg/ml), 74.66 +/− 3.946. Besides, the “migrated cells (checkerboard analysis)” value in data set [3] (lower 20 μg/ml, upper 0 μg/ml) is on record as 90.53 +/− 5.203; in data set [3] (lower 20 μg/ml, upper 10 μg/ml) it was 88.73 +/− 4.152; in data set [3] (lower 20 μg/ml, upper 20 μg/ml), 56.9 +/− 3.289; in data set [3] (lower 20 μg/ml, upper 50 μg/ml), 76.23 +/− 1.8190; in data set [3] (lower 50 μg/ml, upper 0 μg/ml), 72.43 +/− 8.276; in data set [3] (lower 50 μg/ml, upper 10 μg/ml), 91.3 +/− 1.003. Moreover, the “migrated cells (checkerboard analysis)” value in data set [3] (lower 50 μg/ml, upper 20 μg/ml) was 63.26 +/− 3.835; in data set [3] (lower 50 μg/ml, upper 50 μg/ml), 57.46 +/− 2.287; in data set [3] (lower compartment 0 μg/ml, upper compartment 10 μg/ml), 62.3 +/− 3.269.
With `CC(=O)O[C@H]1C(=O)[C@@]2(C)[C@H]([C@H](OC(=O)c3ccccc3)[C@]3(O)C[C@H](OC(=O)[C@H](O)[C@@H](NC(=O)c4ccccc4)c4ccccc4)C(C)=C1C3(C)C)[C@]1(OC(C)=O)CO[C@@H]1C[C@@H]2O` [taxol, paclitaxel], in data set [4], the “time OVCAR cells were significantly inhibited” value is given as “up to 85 days”.
For `O=c1[nH]cc(F)c(=O)[nH]1` [5-FU, 5-fluorouracil], in data set [5], the “duration of 5-FU delivery” value is listed as “at least 75 hours”. The “concentration in water saturated with 5-FU” value in data set [6] was determined as 17 mg/mL.

B1: TGF-β2: purified recombinant human protein provided by Genzyme Corp., spiked into TFC / fibrin clot (protein, UniProt P61812 303-414, looked up)
Transforming growth factor …: ALDAAYCFRNVQDNCCLRPLYIDFKRDLGWKWIHEPKGYNANFCAGACPYLWSSDTQHSRVLSLYNTINPEASASPCCVSQDLEPLTILYYIGKTPKIEQLSNMIVKSCKCS
For the molecule B1, in data set [7], the bio-assay of extract entry is on record as “bioactive”.
